Experimental data as given in patent US12570607B2, “Compound as cyclin-dependent kinase 9 inhibitor and use thereof” (CSPC Zhongqi Pharmaceutical Technology (Shijiazhuang) Co., …, priority 2019, dated 2026).

Experiments:
MV4;11 cells = test: In vitro MV4;11 cell proliferation inhibition (MTT method); assay type: cell-based; conditions: Homo sapiens
Description: The in vitro inhibitory effect of the synthesized compounds on cell proliferation was investigated.
The trade name of MTT was thiazole blue, which was a tetrazolium salt of a dye that could accept hydrogen atoms. […] Dimethyl sulfoxide could dissolve blue-purple complexes in cells, and its light absorption value could be measured at 490-550 nm wavelength with an enzyme-linked immunosorbent detector, which could indirectly reflect the number of cells. Within a certain range of the cell number, the amount of MTT crystals formed was proportional to the number of cells. The drug to be tested was successively diluted to different concentrations and added to a 96-well plate. The OD value was determined after the drug acted for a certain time. The size of the OD value could reflect the number of living cells, and its IC50 value was calculated with SPSS19.0.
Suspension of cells: Cells were […] by centrifugation and counted. A certain density of cell suspension was formulated with a complete culture medium, blown evenly, inoculated on a 96-well plate, 100 μL per well, and then cultured in a CO2 incubator.
An appropriate amount of the drug was added to a calculated amount of DMSO and dissolved. The resulting mixture was dispensed and stored at −20° C. The formulation concentration was 10 mM.
The stock solution of the compound having a concentration of 10 mM was diluted into different concentrations (8 concentrations) of solutions of the compound in DMSO (3-fold dilution, 20×final concentration). Each concentration of solutions (10 μL) of the compound in DMSO was respectively diluted with cell culture media (90 μL) to formulate working solutions (2×final concentration). Each concentration of working solutions (100 μL) of the compound was added to the 96-well plate inoculated with cells (1×final concentration, the highest final concentration is 1000 nM). The resulting plate continued to be cultured in a CO2 incubator.
The 96-well plate was taken out, and the density of cells was observed under a microscope. The test was performed with the MTT method.
MTT method: 20 μL of MTT was added to each well; the plate was cultured for about 4 hours in the incubator; the liquid in the well was discarded; 150 μL of DMSO was added into each well; the plate was placed in a shaker and shaken for 5-10 minutes, and the test was performed with a microplate reader at a wavelength of 550 nm. 7. Data analysis: IC50 value of the drug was calculated with SPSS19.0 statistical software.

hERG channel = hERG channel (Homo sapiens (Human), UniProt Q12809); test: In vitro hERG inhibitory activity, whole-cell patch-clamp on CHO-K1 cell line stably expressing the hERG channel
Description: Rapid delayed rectifier current (IKr) was mainly mediated by the hERG ion channel and involved in human cardiomyocyte repolarization. Inhibition of IKr was the leading cause of the clinical QT interval prolongation syndrome, even acute cardiac dysrhythmia, and even sudden death. By utilizing a whole-cell patch-clamp technology, the blocking effect of a compound on the hERG channel was detected on a CHO-K1 cell line stably expressing the hERG channel, and the half inhibition concentration IC50 of the compound was determined. It was used as a part of the comprehensive cardiac safety assessment, and it was initially evaluated in the safety in vitro screen for cardiotoxicity.
This assay included the following aspects: • The hERG current was recorded on the CHO-K1 cell line stably expressing the hERG channel by utilizing the manual patch-clamp technology; • The inhibition rate at each concentration was calculated according to the hERG tail current; • The measurement was performed at 5 concentrations for each compound to calculate the IC50 value; • 3 cells were tested at each concentration; • One positive control drug was provided.
The hERG current was recorded by utilizing a whole-cell patch-clamp technology. The cell suspension was added to a dish, and the dish was placed on the object stage of an upright microscope. After adhesion of the cells, perfusion was performed with an extracellular fluid at a flow rate of […]. A glass microelectrode was pulled with a microelectrode puller via a two-step process and the pipette rip resistance was between 2-5 MΩ. After the whole-cell record was set up, the clamp potential was held at −80 mV. The cells were depolarized to +60 mV by applying a voltage stimulus and then repolarized to −50 mV to elicit the hERG tail current. All recordation was conducted after the current became stable. The extracellular perfusion administration was started from the lowest concentration, staying for 5-10 min at each concentration until the current was stable, and then conducted with the next concentration.

[1] = test system: human acute myelocytic leukemia MV4;11 cell subcutaneous xenograft tumor; test: In vivo antitumor activity in MV4;11 cell subcutaneous xenograft tumor model; set-up: species or system NOD-SCID mice; conditions: MV4;11 xenograft, p.o.
Method: Cell culture: IMDM culture medium containing 10% fetal bovine serum (FBS), 37° C., 5% CO2.
(§1) NOD-SCID mice, female, 6-8 weeks(18-22 g), each mouse was subcutaneously inoculated with 0.1 mL (1×10^8) MV4;11 cells on the right back of each mouse. When the average tumor volume reached 150 mm^3, drug administration was started. The tumor volume was measured twice a week, and the volume was calculated in cubic millimeters. When the average tumor volume in the vehicle group reached more than 800 mm^3, the administration was terminated to compare the difference in the average tumor volume between the compound groups and the vehicle group. The antitumor efficacy of the compounds was evaluated by TGI (%). TGI (%) reflected the tumor growth inhibition rate.

[2] = test system: human acute promyelocytic leukemia HL-60 cell subcutaneous xenograft tumor; test: In vivo antitumor activity in HL-60 cell subcutaneous xenograft tumor model; set-up: species or system Nu/Nu mice; conditions: HL-60 xenograft, qd, p.o., 5 mg/Kg, 9 days
Method: as §1, with “Cell culture: IMDM culture medium containing 20% fetal bovine serum (FBS), 37° C., 5% CO2; Nu/Nu” for “NOD-SCID”, “weeks (18-22” for “weeks(18-22”, “of HL-60 cell suspension (containing about 1×10^7 cells) in the axillary region of” for “(1×10^8) MV4;11 cells on”, “forelimb.” for “back of each mouse.”, “2-3 times per” for “twice a”, “group” for “groups”

Sequence of hERG channel (Q12809 whole entry): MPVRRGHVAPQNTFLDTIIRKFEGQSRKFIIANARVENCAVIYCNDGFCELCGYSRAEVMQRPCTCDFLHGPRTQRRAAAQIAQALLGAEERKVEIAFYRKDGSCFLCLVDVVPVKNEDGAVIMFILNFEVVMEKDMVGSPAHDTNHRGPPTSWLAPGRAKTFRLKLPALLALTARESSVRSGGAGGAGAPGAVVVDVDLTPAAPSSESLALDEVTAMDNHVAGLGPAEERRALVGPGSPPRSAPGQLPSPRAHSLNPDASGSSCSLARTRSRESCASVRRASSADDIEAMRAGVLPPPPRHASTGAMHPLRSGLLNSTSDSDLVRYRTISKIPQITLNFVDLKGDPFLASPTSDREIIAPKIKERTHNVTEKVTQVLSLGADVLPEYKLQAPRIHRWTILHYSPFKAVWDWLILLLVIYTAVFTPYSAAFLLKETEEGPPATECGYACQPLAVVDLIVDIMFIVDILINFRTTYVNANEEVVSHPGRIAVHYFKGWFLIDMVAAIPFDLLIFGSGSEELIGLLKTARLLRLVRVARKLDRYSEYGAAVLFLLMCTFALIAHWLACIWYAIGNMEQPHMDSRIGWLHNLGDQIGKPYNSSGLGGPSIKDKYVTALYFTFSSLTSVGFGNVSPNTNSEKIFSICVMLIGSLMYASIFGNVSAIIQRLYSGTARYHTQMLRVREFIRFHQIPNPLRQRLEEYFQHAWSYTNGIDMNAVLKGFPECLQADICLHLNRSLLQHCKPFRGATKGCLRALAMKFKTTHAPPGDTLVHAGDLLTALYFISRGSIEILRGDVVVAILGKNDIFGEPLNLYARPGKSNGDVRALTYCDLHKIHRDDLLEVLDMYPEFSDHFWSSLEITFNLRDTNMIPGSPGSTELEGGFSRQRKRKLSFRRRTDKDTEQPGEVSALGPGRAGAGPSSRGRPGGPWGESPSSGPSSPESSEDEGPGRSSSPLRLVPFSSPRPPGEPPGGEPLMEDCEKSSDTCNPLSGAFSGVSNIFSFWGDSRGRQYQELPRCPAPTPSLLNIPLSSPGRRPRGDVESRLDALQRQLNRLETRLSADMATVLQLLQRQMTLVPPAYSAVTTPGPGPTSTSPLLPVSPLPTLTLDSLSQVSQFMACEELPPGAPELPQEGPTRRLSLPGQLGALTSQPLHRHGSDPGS

Compound	IC50 (MV4;11 cells) [µM]	IC50 (hERG channel) [µM]	TGI(%) ([1]; qd, 5 mg/Kg, 9 days)	TGI(%) ([1]; qd, 5 mg/Kg, 16 days)	TGI(%) [2] [%]	TGI(%) ([1]; q2d, 20 mg/Kg, 9 days)	TGI(%) ([1]; qd, 5 mg/Kg, 7 days)
COc1cc(F)ccc1-c1cc(NC(=O)[C@H]2CCC[C@@H](NC(=O)CO)C2)ncc1F [Compound 45]	0.034	> 30		62.9	58.0		
COc1cc(F)ccc1-c1cc(NC(=O)[C@H]2CCC[C@@H](NC(C)=O)C2)ncc1F [Compound 5]	0.037	> 30				98.5	
COc1cc(F)c(F)cc1-c1cc(NC(=O)[C@H]2CCC[C@@H](NC(=O)CO)C2)ncc1F [Compound 68]	0.05	> 30			90.2		78.1
COc1cc(F)ccc1-c1ccnc(NC(=O)[C@H]2CCC[C@@H](NC(C)=O)C2)c1						51.5	

The next lines start with results.

IC50 (MV4;11 cells) [µM]	Compound	IC50 (hERG channel) [µM]	TGI(%) ([1]; qd, 5 mg/Kg, 9 days)	TGI(%) ([1]; qd, 5 mg/Kg, 16 days)	TGI(%) [2] [%]	TGI(%) ([1]; q2d, 20 mg/Kg, 9 days)	TGI(%) ([1]; qd, 5 mg/Kg, 7 days)
0.017	COc1cc(F)ccc1-c1cc(NC(=O)[C@H]2CCC[C@@H](NC(=O)C3(C#N)CC3)C2)ncc1F [Compound 33]	> 30	56.9				
0.067	COc1cc(F)c(F)cc1-c1cc(NC(=O)[C@H]2CCC[C@@H](NC(=O)C3(C#N)CC3)C2)ncc1F [Compound 67]		67.8		67.8		
